Results published in patent publication US6020366A, “Butyric acid matrix metalloproteinase inhibitors” (priority 1998, dated 2000).
Like-named read-outs stand apart in the source and are kept apart here.

How the values were obtained:
Type in all cases: biochemical
[1] = biological target: T1, MMP-2 (Gelatinase A) (Homo sapiens, UniProt P08253); experiment: inhibition of MMP-2 hydrolysis of thiopeptolide substrate
T1 sequence (P08253 110-660): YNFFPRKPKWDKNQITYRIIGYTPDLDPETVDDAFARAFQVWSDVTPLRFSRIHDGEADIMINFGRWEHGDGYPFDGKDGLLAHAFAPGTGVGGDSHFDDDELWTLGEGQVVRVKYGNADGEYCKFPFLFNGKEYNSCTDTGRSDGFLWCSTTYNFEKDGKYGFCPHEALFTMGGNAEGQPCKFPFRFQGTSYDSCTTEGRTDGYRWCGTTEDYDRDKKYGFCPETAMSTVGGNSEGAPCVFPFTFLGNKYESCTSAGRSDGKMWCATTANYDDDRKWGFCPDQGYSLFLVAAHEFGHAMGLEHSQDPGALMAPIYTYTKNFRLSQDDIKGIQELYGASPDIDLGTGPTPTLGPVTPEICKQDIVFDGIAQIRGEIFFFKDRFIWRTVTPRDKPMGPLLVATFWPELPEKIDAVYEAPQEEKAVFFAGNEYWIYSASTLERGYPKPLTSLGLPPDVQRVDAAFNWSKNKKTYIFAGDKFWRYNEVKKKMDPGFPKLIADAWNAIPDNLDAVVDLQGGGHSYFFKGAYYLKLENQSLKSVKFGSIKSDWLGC

[2] = biological target: MMP-3 (stromelysin) (Homo sapiens, UniProt P08254); experiment: inhibition of MMP-3 hydrolysis of thiopeptolide substrate
Source text: The assays measure the amount by which a test compound reduces the hydrolysis of a thiopeptolide substrate caused by a matrix metalloproteinase enzyme. Such assays are described in detail by Ye, et al., in Biochemistry, 1992;31(45):11231-11235).
Thiopeptolide substrates show virtually no decomposition or hydrolysis in the absence of a matrix metalloproteinase enzyme. A typical thiopeptolide substrate commonly utilized for assays is Ac-Pro-Leu-Gly-thioester-Len-Len-Gly-O Et. […] Assays are carried out with and without matrix metalloproteinase inhibitor compounds, and the amount of hydrolysis is compared for a determination of inhibitory activity of the test compounds.
In the table, MMP-1 refers to interstitial collagenase; MMP-2 refers to Gelatinase A; MMP-3 refers to stromelysin; MMP-7 refers to matrilysin; and MMP-13 refers to Collagenase 3.

[3] = biological target: MMP-13 (Collagenase 3) (Homo sapiens, UniProt P45452); experiment: inhibition of MMP-13 hydrolysis of thiopeptolide substrate
Source text: The invention compounds have been evaluated in standard in vitro assays and shown to be potent inhibitors of several matrix metalloproteinase enzymes.

[4] = thiopeptolide substrate, pH 6.0, 22° C., read-out: (IC50) MMP-2
[5] = thiopeptolide substrate, pH 6.0, 22° C., read-out: (IC50) MMP-3
[6] = thiopeptolide substrate, pH 6.0, 22° C., read-out: (IC50) MMP-13

Sequence of MMP-3 (stromelysin) (P08254 100-477): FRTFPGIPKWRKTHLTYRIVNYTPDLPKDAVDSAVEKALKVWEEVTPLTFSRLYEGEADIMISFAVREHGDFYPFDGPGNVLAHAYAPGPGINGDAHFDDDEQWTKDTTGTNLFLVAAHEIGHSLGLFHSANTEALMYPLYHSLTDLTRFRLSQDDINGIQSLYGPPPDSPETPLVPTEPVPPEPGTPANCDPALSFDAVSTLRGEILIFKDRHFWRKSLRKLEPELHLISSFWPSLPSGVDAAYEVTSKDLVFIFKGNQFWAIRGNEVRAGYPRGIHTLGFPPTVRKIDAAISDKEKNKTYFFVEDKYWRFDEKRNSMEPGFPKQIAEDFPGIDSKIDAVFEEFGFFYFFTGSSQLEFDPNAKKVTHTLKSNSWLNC

O=C(C[C@@H](NC(=O)C(F)(F)F)C(=O)O)c1ccc2oc3ccccc3c2c1 [Example 2, (R)-4-Dibenzofuran-2-yl-4-oxo-2-(2,2,2-trifluoroacetylamino)-butyric acid]
IC50 [1, 4]: 44 µM | IC50 [2, 5]: 78 µM

CC(=O)N[C@@H](CC(=O)c1ccc2oc3ccccc3c2c1)C(=O)O [Example 4, (S)-2-Acetylamino-4-dibenzofuran-2-yl-4-oxo-butyric acid]
IC50 [2, 5]: 1.6 µM

CC(C)c1cccc(C(C)C)c1NC(=O)N[C@@H](CC(=O)c1ccc2oc3ccccc3c2c1)C(=O)O [Example 5, (S)-4-Dibenzofuran-2-yl-2-[3-(2,6-diisopropyl-phenyl)-ureido]-4-oxo-butyric acid]
IC50 [1, 4]: 0.32 µM | IC50 [2, 5]: 1.7 µM

O=C(C[C@H](NC(=O)c1ccccc1)C(=O)O)c1ccc2oc3ccccc3c2c1 [Example 6, (S)-2-Benzoylamino-4-dibenzofuran-2-yl-4-oxo-butyric acid]
IC50 [1, 4]: 0.18 µM | IC50 [2, 5]: 0.91 µM

O=C(CCc1ccccc1)N[C@@H](CC(=O)c1ccc2oc3ccccc3c2c1)C(=O)O [Example 8, (S)-4-Dibenzofuran-2-yl-4-oxo-2-(3-phenylpropionylamino)-butyric acid]
IC50 [1, 4]: 0.067 µM | IC50 [2, 5]: 0.29 µM | IC50 [3, 6]: 1.3 µM

O=C(CCCCCCc1ccccc1)N[C@@H](CC(=O)c1ccc2oc3ccccc3c2c1)C(=O)O [Example 9, (S)-4-Dibenzofuran-2-yl-4-oxo-2-(7-phenylheptanoylamino)-butyric acid]
IC50 [1, 4]: 0.51 µM | IC50 [2, 5]: 3.9 µM

O=C(C[C@H](NC(=O)c1ccc(-c2ccccc2)cc1)C(=O)O)c1ccc2oc3ccccc3c2c1 [Example 10, (S)-2-[(Biphenyl-4-carbonyl)-amino]-4-dibenzofuran-2-yl-4-oxo-butyric acid]
IC50 [1, 4]: 1.64 µM | IC50 [2, 5]: 9.4 µM

CCCCCCCC(=O)N[C@@H](CC(=O)c1ccc2oc3ccccc3c2c1)C(=O)O [Example 11, (S)-4-Dibenzofuran-2-yl-4-oxo-2-(octanoylamino)-butyric acid]
IC50 [1, 4]: 0.36 µM | IC50 [2, 5]: 2.7 µM | IC50 [3, 6]: 6.8 µM

CCCCCCCCCCCC(=O)N[C@@H](CC(=O)c1ccc2oc3ccccc3c2c1)C(=O)O [Example 12, (S)-4-Dibenzofuran-2-yl-4-oxo-2-(dodecanoylamino)-butyric acid]
IC50 [1, 4]: 8.8 µM | IC50 [2, 5]: 4 µM

CS(=O)(=O)N[C@@H](CC(=O)c1ccc2oc3ccccc3c2c1)C(=O)O [Example 13, (S)-4-Dibenzofuran-2-yl-4-oxo-2-methanesulfonylamino-butyric acid]
IC50 [1, 4]: 0.28 µM | IC50 [2, 5]: 9.2 µM

O=C(C[C@H](NC(=O)C(F)(F)F)C(=O)O)c1ccc2c(c1)Cc1ccccc1-2 [Example 15, (S)-4-(9H-fluoren-2-yl)-4-oxo-2-(2,2,2-trifluoroacetylamino)-butyric acid]
IC50 [1, 4]: 12.5 µM | IC50 [2, 5]: 76.5 µM

O=C(O)[C@H](CC(=NO)c1ccc2oc3ccccc3c2c1)NC(=O)C(F)(F)F [Example 16, (S)-4-Dibenzofuran-2-yl-4-hydroxyimino-2-(2,2,2-trifluoroacetylamino)-butyric acid]
IC50 [1, 4]: 0.72 µM | IC50 [2, 5]: 6.6 µM | IC50 [3, 6]: 2.4 µM

O=C(CC(NC(=O)C(c1ccccc1)c1ccccc1)C(=O)O)c1ccc2oc3ccccc3c2c1 (stereo not drawn) [Example 18, 4-Dibenzofuran-2-yl-2-diphenylacetylamino-4-oxo-butyric acid]
IC50 [1, 4]: 0.1 µM | IC50 [2, 5]: 0.36 µM | IC50 [3, 6]: 1.1 µM

O=C(COc1ccc(Cl)cc1)NC(CC(=O)c1ccc2oc3ccccc3c2c1)C(=O)O (stereo not drawn) [Example 19, 2-[2-(4-Chloro-phenoxy)-acetylamino]-4-dibenzofuran-2-yl-4-oxo-butyric acid]
IC50 [1, 4]: 0.64 µM | IC50 [2, 5]: 3.1 µM | IC50 [3, 6]: 46 µM

O=C(CC(NC(=O)c1ccc(Cl)c(Cl)c1)C(=O)O)c1ccc2oc3ccccc3c2c1 (stereo not drawn) [Example 20]
IC50 [1, 4]: 1.3 µM | IC50 [2, 5]: 7 µM | IC50 [3, 6]: 38 µM

COc1ccc(CC(=O)NC(CC(=O)c2ccc3oc4ccccc4c3c2)C(=O)O)cc1OC (stereo not drawn) [Example 21, 4-Dibenzofuran-2-yl-2-[2-(3,4-dimethoxy-phenyl)-acetylamino] -4-oxo-butyric acid]
IC50 [1, 4]: 0.32 µM | IC50 [2, 5]: 2.4 µM | IC50 [3, 6]: 16 µM

O=C(CC(NC(=O)c1ccc2ccccc2c1)C(=O)O)c1ccc2oc3ccccc3c2c1 (stereo not drawn) [Example 22, 4-Dibenzofuran-2-yl-2-[(naphthalene-2-carbonyl)-amino] -4-oxo-butyric acid]
IC50 [1, 4]: 1.7 µM | IC50 [2, 5]: 6.9 µM | IC50 [3, 6]: 28 µM

CCCC(C)(C)C(=O)NC(CC(=O)c1ccc2oc3ccccc3c2c1)C(=O)O (stereo not drawn) [Example 23, 4-Dibenzofuran-2-yl-2-(2,2-dimethyl-pentanoylamino)-4-oxo-butyric acid]
IC50 [1, 4]: 0.17 µM | IC50 [2, 5]: 0.76 µM | IC50 [3, 6]: 5.6 µM

O=C(CC(NC(=O)c1ccncc1)C(=O)O)c1ccc2oc3ccccc3c2c1 (stereo not drawn) [Example 24, 4-Dibenzofuran-2-yl-4-oxo-2-[(pyridine-4-carbonyl)-amino]-butyric acid]
IC50 [1, 4]: 3.2 µM | IC50 [2, 5]: 13 µM | IC50 [3, 6]: 41 µM

O=C(C=Cc1ccccc1)NC(CC(=O)c1ccc2oc3ccccc3c2c1)C(=O)O (stereo not drawn) [Example 25, 4-Dibenzofuran-2-yl-4-oxo-2-(3-phenyl-acryloylamino)-butyric acid]
IC50 [1, 4]: 0.11 µM | IC50 [2, 5]: 0.8 µM | IC50 [3, 6]: 8.4 µM

O=C(CC(NC(=O)C12CC3CC(CC(C3)C1)C2)C(=O)O)c1ccc2oc3ccccc3c2c1 (stereo not drawn) [Example 26, 2-[(Adamantane-1-carbonyl)-amino]-4-dibenzofuran-2-yl-4-oxo-butyric acid]
IC50 [1, 4]: 2.1 µM | IC50 [2, 5]: 9.2 µM | IC50 [3, 6]: 40 µM

O=C(CC(NC(=O)C(F)(F)C(F)(F)C(F)(F)C(F)(F)C(F)(F)C(F)(F)C(F)(F)F)C(=O)O)c1ccc2oc3ccccc3c2c1 (stereo not drawn) [Example 27, 4-Dibenzofuran-2-yl-4-oxo-2-(2,2,3,3,4,4,5,5,6,6,7,7,8,8,8-pentadecafluoro-octanoylamino)-butyric acid]
IC50 [1]: 4.6 µM | IC50 [2]: 18 µM | IC50 [3]: 77 µM

O=C(COc1ccccc1)NC(CC(=O)c1ccc2oc3ccccc3c2c1)C(=O)O (stereo not drawn) [Example 28, 4-Dibenzofuran-2-yl-4-oxo-2-(2-phenoxy-acetylamino)-butyric acid]
IC50 [1, 4]: 0.18 µM | IC50 [2, 5]: 0.51 µM | IC50 [3, 6]: 12 µM

Cc1ccc(C(=O)NC(CC(=O)c2ccc3oc4ccccc4c3c2)C(=O)O)cc1 (stereo not drawn) [Example 29, 4-Dibenzofuran-2-yl-2-(4-methyl-benzoylamino)-4-oxo-butyric acid]
IC50 [2, 5]: 0.39 µM | IC50 [3, 6]: 5.2 µM

O=C(CCCc1ccc(Br)cc1)NC(CC(=O)c1ccc2oc3ccccc3c2c1)C(=O)O (stereo not drawn) [Example 31, 2-[4-(4-Bromo-phenyl)-butyrylamino]-4-dibenzofuran-2-yl-4-oxo-butyric acid]
IC50 [1, 4]: 0.6 µM | IC50 [2, 5]: 5.3 µM | IC50 [3, 6]: 25 µM

O=C(COCc1ccccc1)NC(CC(=O)c1ccc2oc3ccccc3c2c1)C(=O)O (stereo not drawn) [Example 32, 2-(2-Benzyloxy-acetylamino)-4-dibenzofuran-2-yl-4-oxo-butyric acid]
IC50 [1, 4]: 0.041 µM | IC50 [2, 5]: 0.33 µM | IC50 [3, 6]: 3.5 µM

O=C(CC(NC(=O)c1c(F)c(F)c(F)c(F)c1F)C(=O)O)c1ccc2oc3ccccc3c2c1 (stereo not drawn) [Example 40, 4-Dibenzofuran-2-yl-4-oxo-2-(2,3,4,5,6-pentafluoro-benzoylamino)-butyric acid]
IC50 [1, 4]: 5.2 µM | IC50 [2, 5]: 28 µM
